The text below walks through data of patent publication US20130253056A1, “Continuous Administration of Levodopa and/or Dopa Decarboxylase Inhibitors and Compositions for Same” (NEURODERM, LTD., priority 2009, published 2013).

Structures are written as SMILES. A value given as a limit tells only on which side of the number the result lay.

For data set [1] the following is noted: man, monkey and dog; cited from earlier work.
The conditions of data set [2]: mice. How it is done: Mice were implanted subcutaneously with Alzet pumps containing Saline (Negative Control), Vehicle or Carbidopa solution. A day following implantation LD/CD was administered orally Q8 h. The level of levodopa and dopamine in the brain was determined following the 4th oral dose of LD/CD.
For data set [3] the following is noted: in vivo.
Text: (§1) In this experiment, the purpose was to determine the effect of continuous subcutaneous administration of carbidopa, with co-administration of oral L-dopa/carbidopa, on the pharmacokinetics of levodopa in pigs.
For data set [4] the following is noted: in vivo, sc.
The conditions of data set [5]: cited from earlier work.
Data set [6] in a line: Effect of continuous subcutaneous carbidopa on pharmacokinetics of levodopa and carbidopa in pigs.
Text: as §1
[7] abbreviates: continuous subcutaneous carbidopa co-administered with any oral LD preparation.

On to `C[C@@](Cc1ccc(O)c(O)c1)(NN)C(=O)O` [Carbidopa, (−)-L-α-hydrazino-α-methyl-β-(3,4-dihydroxybenzene)propanoic acid monohydrate], for which the “fraction of an oral dose absorbed” value in data set [1] was 40-70%. Besides, the “levels of plasma LD” value in data set [2] (oral LD/CD with continuous SC carbidopa 15 mg/kg/d) is “higher levels of plasma LD”. Besides, in data set [2] (seven hours post oral LD (LD/CD 32/8 mg/kg TID), continuous SC carbidopa 15 mg/kg/d), the “dopamine levels in the brain” value is on record as “significantly higher”. Moreover, the “treatment related local or systemic toxicity” value in data set [3] was “No signs of treatment related local or systemic toxicity were observed”. The “histological analysis of infusion sites (local tolerance)” value in data set [4] is on record as “No histological treatment-related abnormalities were observed”. For the same molecule, in data set [5], the “solubility in alcohol, chloroform or ether” value is “practically insoluble” and the solubility in water entry is recorded as “only slightly soluble in water”. Besides, in data set [6], the “effect of increased carbidopa oral dose or frequency on the PK profile of levodopa” value is listed as “did not considerably improve”. Also, in data set [6] (setting [7]), the “increase of the AUC of levodopa” value is above 2 × and the “increase of the half live (t½) of levodopa” value is above 2 ×.
